Tested on: skin
Test: Affymetrix microarray of skin, DBP-4 hr and analogs vs. untreated; gene selection by log-2 fold change, Wilcoxon, Kendall tau (Tables 8, 9)
Format: in vivo, mouse
Conditions: mouse, in vivo

CCCCOC(=O)c1ccccc1C(=O)OCCCC [DBP, dibutylphthalate]
Nrap NM_198059_at ≧2-Fold change: No | Nusap1 NM_133851_at ≧2-Fold change: No | Ogfrl1 NM_001081079_at ≧2-Fold change: No | Olr1 NM_138648_at ≧2-Fold change: No | Otud7a (NM_130880_at) ≧2-Fold change: Yes | Oxr1 NM_001130163_at ≧2-Fold change: No | Oxr1 NM_001130164_at ≧2-Fold change: No | Oxr1 NM_001130165_at ≧2-Fold change: No | Oxr1 NM_001130166_at ≧2-Fold change: No | Pde4b (NM_019840_at) ≧2-Fold change: Yes | Pdk4 (NM_013743_at) ≧2-Fold change: Yes | Pgam2 NM_018870_at ≧2-Fold change: No | Pigyl NM_001082532_at ≧2-Fold change: No | Plaur (NM_011113_at) ≧2-Fold change: Yes | Plek (NM_019549_at) ≧2-Fold change: Yes | Plscr1 (NM_011636_at) ≧2-Fold change: Yes | Pmaip1 (NM_021451_at) ≧2-Fold change: Yes | Pparg NM_001127330_at ≧2-Fold change: No | Ppih NM_001110129_at ≧2-Fold change: No | Prg4 NM_021400_at ≧2-Fold change: No | Prss22 (NM_133731_at) ≧2-Fold change: Yes | Ptges (NM_022415_at) ≧2-Fold change: Yes | Pyy (NM_145435_at) ≧2-Fold change: Yes | Rab20 (NM_011227_at) ≧2-Fold change: Yes | Ramp3 (NM_019511_at) ≧2-Fold change: Yes | Retnla NM_020509_at ≧2-Fold change: No | Rffl NM_001007465_at ≧2-Fold change: No | Rgs1 (NM_015811_at) ≧2-Fold change: Yes | Rn18s NR_003278_at ≧2-Fold change: No | Rnf19b (NM_029219_at) ≧2-Fold change: Yes | Rpl3l NM_025425_at ≧2-Fold change: No | Saa3 (NM_011315_at) ≧2-Fold change: Yes | Slc5a1 (NM_019810_at) ≧2-Fold change: Yes | Slc7a5 (NM_011404_at) ≧2-Fold change: Yes | Slc10a6 (NM_029415_at) ≧2-Fold change: Yes | Slc15a3 (NM_023044_at) ≧2-Fold change: Yes | Slc25a25 (NM_146118_at) ≧2-Fold change: Yes | Slc34a2 (NM_011402_at) ≧2-Fold change: Yes | Slc39a8 (NM_026228_at) ≧2-Fold change: Yes | Slc39a14 NM_001135151_at ≧2-Fold change: No | Slfn2 (NM_011408_at) ≧2-Fold change: Yes | Slfn4 (NM_011410_at) ≧2-Fold change: Yes | Sln NM_025540_at ≧2-Fold change: No | Slpi (NM_011414_at) ≧2-Fold change: Yes | Smox (NM_145533_at) ≧2-Fold change: Yes | Smpx NM_025357_at ≧2-Fold change: No | Stfa3 (NM_025288_at) ≧2-Fold change: Yes | Timp1 (NM_011593_at) ≧2-Fold change: Yes | Tlr2 (NM_011905_at) ≧2-Fold change: Yes | Tnf (NM_013693_at) ≧2-Fold change: Yes | Tnfrsf9 NM_001077508_at ≧2-Fold change: No | Tnfrsf9 NM_001077509_at ≧2-Fold change: No | Tnfrsf12a (NM_013749_at) ≧2-Fold change: Yes | Tnni1 NM_021467_at ≧2-Fold change: No | Trdn NM_029726_at ≧2-Fold change: No | Trf NM_133977_at ≧2-Fold change: No | Trp63 NM_001127259_at ≧2-Fold change: No | Trp63 NM_001127260_at ≧2-Fold change: No | Trp63 NM_001127262_at ≧2-Fold change: No | Trp63 NM_001127264_at ≧2-Fold change: No | Tslp (NM_021367_at) ≧2-Fold change: Yes | Tslp (NR_033206_at) ≧2-Fold change: Yes | Ttn NM_028004_at ≧2-Fold change: No | Tubb6 (NM_026473_at) ≧2-Fold change: Yes | Uap1 (NM_133806_at) ≧2-Fold change: Yes | Wbp1 NM_001083922_at ≧2-Fold change: No | Wbp1 NM_001083923_at ≧2-Fold change: No | Wfdc2 NM_026323_at ≧2-Fold change: No | Zc3h12a (NM_153159_at) ≧2-Fold change: Yes | Zfp36 (NM_011756_at) ≧2-Fold change: Yes | Zfp68 NM_001044747_at ≧2-Fold change: No | Zfp187 NM_001013786_at ≧2-Fold change: No | Zfp518b NM_001081144_at ≧2-Fold change: No | Zfp593 (NM_024215_at) ≧2-Fold change: Yes | Zfp943 NM_001025373_at ≧2-Fold change: No | ≧2-Fold change: No and Yes | ≧2-Fold change: 1810046J19Rik: No | ≧2-Fold change: 4933434E20Rik: No | ≧2-Fold change: Abhd6: No | ≧2-Fold change: Acad8: No | ≧2-Fold change: Ak2: No | ≧2-Fold change: Akr1e1: No | ≧2-Fold change: Avpr1a: No | ≧2-Fold change: B4galt1: No | ≧2-Fold change: Bphl: No | ≧2-Fold change: Cdkl2: No | ≧2-Fold change: Cep70: No | ≧2-Fold change: Cirh1a: No | ≧2-Fold change: Clec14a: No | ≧2-Fold change: Commd4: No | ≧2-Fold change: Cr1l: No | ≧2-Fold change: Cyth1: No | ≧2-Fold change: D16Ertd472e: No | ≧2-Fold change: Dcxr: No | ≧2-Fold change: Dda1: No | ≧2-Fold change: Diablo: No | ≧2-Fold change: Dmap1: No | ≧2-Fold change: Dnajc4: No | ≧2-Fold change: Eid1: No | ≧2-Fold change: Eif6: No | ≧2-Fold change: Erlec1: No | ≧2-Fold change: Fam134b: No | ≧2-Fold change: Fbxo25: No | ≧2-Fold change: Fgf13: No | ≧2-Fold change: Flt1: No | ≧2-Fold change: Fmo5: No | ≧2-Fold change: Ftsj3: No | ≧2-Fold change: Gcnt2: No | ≧2-Fold change: Gmcl1: No | ≧2-Fold change: Gpn3: No | ≧2-Fold change: Gstz1: No | ≧2-Fold change: Gtf2h2: No | ≧2-Fold change: Gtf3a: No | ≧2-Fold change: Hsdl2: No | ≧2-Fold change: Icos: No | ≧2-Fold change: Ifngr1: No | ≧2-Fold change: Inpp5d: No | ≧2-Fold change: Itgax: No | ≧2-Fold change: Itk: No | ≧2-Fold change: Krt17: No | ≧2-Fold change: Map3k14: No | ≧2-Fold change: Mdp1: No | ≧2-Fold change: Meis1: No | ≧2-Fold change: Mkrn3: No | ≧2-Fold change: Mtcp1: No | ≧2-Fold change: Mum1: No | ≧2-Fold change: Myd88: No | ≧2-Fold change: Nagk: No | ≧2-Fold change: Ndufaf3: No | ≧2-Fold change: Nek3: No | ≧2-Fold change: Nfkb2: No | ≧2-Fold change: Nicn1: No | ≧2-Fold change: Nme3: No | ≧2-Fold change: Ntpcr: No | ≧2-Fold change: Orc3: No | ≧2-Fold change: Padi1: No | ≧2-Fold change: Panx1: No | ≧2-Fold change: Pfdn2: No | ≧2-Fold change: Phtf1: No | ≧2-Fold change: Pigp: No | ≧2-Fold change: Pkp4: No | ≧2-Fold change: Plk3: No | ≧2-Fold change: Polr2g: No | ≧2-Fold change: Pparg: No | ≧2-Fold change: Ppp1r7: No | ≧2-Fold change: Prokr1: No | ≧2-Fold change: Ptpn1: No | ≧2-Fold change: Rabgef1: No | ≧2-Fold change: Rai12: No | ≧2-Fold change: Rbbp6: No | ≧2-Fold change: Rpl7l1: No | ≧2-Fold change: Sema4d: No | ≧2-Fold change: Siae: No | ≧2-Fold change: Sirt1: No | ≧2-Fold change: Slc9a3r1: No | ≧2-Fold change: Slc30a4: No | ≧2-Fold change: Slc35a1: No | ≧2-Fold change: Smarcb1: No | ≧2-Fold change: Srsf6: No | ≧2-Fold change: Stx17: No | ≧2-Fold change: Tmed1: No | ≧2-Fold change: Tmem208: No | ≧2-Fold change: Tnfrsf1a: No | ≧2-Fold change: Tnfrsf9: No | ≧2-Fold change: Trappc2l: No | ≧2-Fold change: Tril: No | ≧2-Fold change: Trim12a: No | ≧2-Fold change: Trip4: No | ≧2-Fold change: Trp63: No | ≧2-Fold change: Trpv2: No | ≧2-Fold change: Tsn: No | ≧2-Fold change: Ufc1: No | ≧2-Fold change: Ulk2: No | ≧2-Fold change: Wbp1: No | ≧2-Fold change: Zfp68: No | ≧2-Fold change: Zfp90: No | ≧2-Fold change: Zkscan3: No | ≧2-Fold change: Zkscan6: No
